Molecular target: T1, GPR158 R173A mutant (Homo sapiens, UniProt Q5T848, R173A)
T1 sequence (Q5T848 24-1215 R173A): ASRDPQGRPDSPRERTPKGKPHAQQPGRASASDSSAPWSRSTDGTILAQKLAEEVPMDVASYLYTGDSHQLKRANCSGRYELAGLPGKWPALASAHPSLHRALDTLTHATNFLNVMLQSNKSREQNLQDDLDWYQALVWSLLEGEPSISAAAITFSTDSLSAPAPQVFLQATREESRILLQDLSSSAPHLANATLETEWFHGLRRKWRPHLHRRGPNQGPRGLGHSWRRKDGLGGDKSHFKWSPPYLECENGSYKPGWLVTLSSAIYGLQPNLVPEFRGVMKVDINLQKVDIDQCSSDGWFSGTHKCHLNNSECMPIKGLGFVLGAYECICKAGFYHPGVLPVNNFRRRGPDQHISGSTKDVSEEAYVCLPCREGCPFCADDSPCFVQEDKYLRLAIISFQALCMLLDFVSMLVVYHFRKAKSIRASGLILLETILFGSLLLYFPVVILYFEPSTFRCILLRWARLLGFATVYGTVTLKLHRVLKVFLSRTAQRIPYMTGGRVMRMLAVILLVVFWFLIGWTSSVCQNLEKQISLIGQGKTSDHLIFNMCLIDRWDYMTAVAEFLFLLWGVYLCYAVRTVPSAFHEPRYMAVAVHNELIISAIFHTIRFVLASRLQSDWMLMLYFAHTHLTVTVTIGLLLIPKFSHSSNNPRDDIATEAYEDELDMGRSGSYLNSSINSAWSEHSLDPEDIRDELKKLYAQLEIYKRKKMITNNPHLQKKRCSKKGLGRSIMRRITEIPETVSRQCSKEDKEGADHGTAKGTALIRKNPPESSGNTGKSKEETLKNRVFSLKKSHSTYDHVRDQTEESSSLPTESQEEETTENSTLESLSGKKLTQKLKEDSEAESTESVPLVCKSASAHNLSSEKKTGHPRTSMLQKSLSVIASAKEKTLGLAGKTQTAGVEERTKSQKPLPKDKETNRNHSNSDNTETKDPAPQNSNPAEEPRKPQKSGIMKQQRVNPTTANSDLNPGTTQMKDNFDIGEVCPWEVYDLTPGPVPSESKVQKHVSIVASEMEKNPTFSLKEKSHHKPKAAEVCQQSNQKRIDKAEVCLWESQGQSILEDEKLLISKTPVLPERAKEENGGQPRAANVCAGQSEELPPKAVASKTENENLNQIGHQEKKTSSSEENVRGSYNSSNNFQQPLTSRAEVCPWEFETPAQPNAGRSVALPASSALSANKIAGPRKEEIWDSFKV
Assay: Radioligand binding assay on GPR158 mutant R173A
From the text: FIGS. 11A-11G. Probing Cache domain of GPR158 as a ligand binding site A) Computational docking of glycine into putative ligand binding pocket on GPR158 Cache domain. Glycine and directly interacting residues are shown as sticks. Hydrogen bonds and van der Waals interactions are shown as dotted lines. B) Diagram showing interactions in the docked model of glycine against GPR158 Cache domain. Hydrogen bonds are shown as dashed lines, van der Waals interactions are shown as intersecting semicircles, and the secondary structural context of Ser266 and Tyr269 is shown as an arc. Dagger indicates a residue implicated in glycine binding in 11A. C) Radioligand binding assay of ^3H-glycine in cells expressing GPR158 mutants. Data shown mean±s.e.m. of 3 independent experiments, *p<0.05, ns=p>0.05 one-way ANOVA. D) Functional evaluation of GPR158 mutants in GAP BRET assay. Error bars are mean±s.e.m. of 3 independent experiments in triplicate. *p<0.05, **p<0.01, ***p<0.001, ****p<0.0001, ns=p>0.05, two-way ANOVA Columns with no fill (Ctrl), columns with angled-line fill (Glycine) E) Quantification of glycine inhibitory effect on kGAP normalized to the effect seen with WT receptor. […]
Whole cell binding was performed using cDNA of GPR158-venus or each GPR158-venus mutant or empty pcDNA3.1+ for ctrl cells. […] Finally radioactivity was measured using the liquid scintillation analyzer Tri-Carb 4910 TR.

NCC(=O)O [^3H-glycine, [^3H]-glycine] was tested, and the “[^3H]-glycine binding” value was “near complete loss”.
